# Laboratory results taken from patent US9676704B2, “Pesticidal compositions and processes related thereto” (Dow AgroSciences LLC, priority 2014, dated 2017).
# Tests used:
# Cabbage Looper (CL) = assay: Bioassays on CL, 128-well diet tray assay; type: in vivo; conditions: Trichoplusia ni; for mortality at 50 µg/cm2: 168 h, 50 μg/cm^2 on artificial diet, second instar larvae, five to seven days, 25° C., read-out: CL % Control (or Mortality) rating
# Protocol: Bioassays on CL were conducted using a 128-well diet tray assay. One to five second instar CL larvae were placed in each well (3 mL) of the diet tray that had been previously filled with 1 mL of artificial diet to which 50 μg/cm^2 of the test compound (dissolved in 50 μL of 90:10 acetone-water mixture) had been applied (to each of eight wells) and then allowed to dry. Trays were covered with a clear self-adhesive cover, and held at 25° C., 14:10 light-dark for five to seven days. Percent mortality was recorded for the larvae in each well; activity in the eight wells was then averaged. The results are indicated in the table entitled “Table ABC: Assay Results (F)”, “Table ABCD: Assay Results (C)”, and “Table ABCDE: Assay Results (P)” (See Table Section).
# (§1) Bioassays on BAW and CL were conducted according to the procedures outlined in Example A: Bioassays on Beet Armyworm (“BAW”) and Cabbage Looper (“CL”) using the following concentrations: 5, 0.5, and 0.05 μg/cm^2.
# Beet Armyworm (BAW) = assay: Bioassays on BAW, 128-well diet tray assay; type: in vivo; conditions: Spodoptera exigua; for mortality at 50 µg/cm2: 168 h, 50 μg/cm^2 on artificial diet, second instar larvae, five to seven days, 25° C., read-out: BAW % Control (or Mortality) rating
# Protocol: Bioassays on BAW were conducted using a 128-well diet tray assay. one to five second instar BAW larvae were placed in each well (3 mL) of the diet tray that had been previously filled with 1 mL of artificial diet to which 50 μg/cm^2 of the test compound (dissolved in 50 μL of 90:10 acetone-water mixture) had been applied (to each of eight wells) and then allowed to dry. Trays were covered with a clear self-adhesive cover, and held at 25° C., 14:10 light-dark for five to seven days. Percent mortality was recorded for the larvae in each well; activity in the eight wells was then averaged. The results are indicated in the tables entitled “Table ABC: Assay Results (F)”, “Table ABCD: Assay Results (C)”, and “Table ABCDE: Assay Results (P)” (See Table Section).
# as §1
# [1] = test system: Yellow Fever Mosquito (YFM); type: in vivo, Aedes aegypti; conditions: 15 μL of diluted 4000 ppm master solution per well, about 1 day-old larvae, 3 days
# Protocol: Master plates containing 400 μg of a molecule dissolved in 100 μL of dimethyl sulfoxide (DMSO) (equivalent to a 4000 ppm solution) are used. A master plate of assembled molecules contains 15 μL per well. To this plate, 135 μL of a 90:10 water:acetone mixture is added to each well. A robot (Biomek® NXP Laboratory Automation Workstation) is programmed to dispense 15 μL aspirations from the master plate into an empty 96-well shallow plate (“daughter” plate). There are 6 reps (“daughter” plates) created per master. The created daughter plates are then immediately infested with YFM larvae. The day before plates are to be treated, mosquito eggs are placed in Millipore water containing liver powder to begin hatching (4 g. into 400 mL). After the daughter plates are created using the robot, they are infested with 220 μL of the liver powder/larval mosquito mixture (about 1 day-old larvae). After plates are infested with mosquito larvae, a non-evaporative lid is used to cover the plate to reduce drying. Plates are held at room temperature for 3 days prior to grading. After 3 days, each well is observed and scored based on mortality. The results are indicated in the table entitled “Table ABC: Assay Results (F)” and “Table ABCD: Assay Results (C)” (See Table Section). Pesticidally Acceptable Acid Addition Salts, Salt Derivatives, Solvates, Ester Derivatives, Polymorphs, Isotopes and Radionuclides
SMILES,mortality at 50 µg/cm2 (Cabbage Looper (CL)) [%],"mortality at 0.05 µg/cm2 (Cabbage Looper (CL); 0.05 μg/cm^2, read-out: CL Percent control (or mortality)) [%]","mortality at 0.5 µg/cm2 (Cabbage Looper (CL); 0.5 μg/cm^2, read-out: CL Percent control (or mortality)) [%]","mortality at 5 µg/cm2 (Cabbage Looper (CL); 5 μg/cm^2, read-out: CL Percent control (or mortality)) [%]",mortality at 50 µg/cm2 (Beet Armyworm (BAW)) [%],"mortality at 0.05 µg/cm2 (Beet Armyworm (BAW); 0.05 μg/cm^2, read-out: BAW Percent control (or mortality)) [%]","mortality at 0.5 µg/cm2 (Beet Armyworm (BAW); 0.5 μg/cm^2, read-out: BAW Percent control (or mortality)) [%]","mortality at 5 µg/cm2 (Beet Armyworm (BAW); 5 μg/cm^2, read-out: BAW Percent control (or mortality)) [%]",YFM % Control (or Mortality) rating [1]
"C[C@H](NC(=O)CCC(F)(F)F)NC(=O)c1ccc(/C=C/C(c2cc(Cl)c(Cl)c(Cl)c2)C(F)(F)F)cc1Br (stereo partly drawn) [Compound P27, 2-Bromo-4-((E)-4,4,4-trifluoro-3-(3,4,5-trichlorophenyl)but-1-en-1-yl)-N—((R)-1-(4,4,4-trifluorobutanamido)ethyl)benzamide]",50 to 100,0,7,100,50 to 100,0,0,7,B (More than 0-Less than 80)
"Cc1cc(/C=C/C(c2cc(Cl)c(F)c(Cl)c2)C(F)(F)F)ccc1C(=O)N[C@H](C)NC(=O)CC(F)(F)F (stereo partly drawn) [Compound P5, 4-((E)-3-(3,5-Dichloro-4-fluorophenyl)-4,4,4-trifluorobut-1-en-1-yl)-2-methyl-N—((R)-1-(3,3,3-trifluoropropanamido)ethyl)benzamide]",50 to 100,–,–,–,50 to 100,–,–,–,A (80-100)
"C[C@H](NC(=O)CCC(F)(F)F)NC(=O)c1ccc(/C=C/C(c2cc(Cl)c(Br)c(Cl)c2)C(F)(F)F)cc1C(F)(F)F (stereo partly drawn) [Compound P12, 4-((E)-3-(4-Bromo-3,5-dichlorophenyl)-4,4,4-trifluorobut-1-en-1-yl)-N—((R)-1-(4,4,4-trifluorobutanamido)ethyl)-2-(trifluoromethyl)benzamide]",50 to 100,–,–,–,50 to 100,–,–,–,A (80-100)
"C[C@H](NC(=O)CCC(F)(F)F)NC(=O)c1ccc(/C=C/C(c2cc(Br)c(Cl)c(Br)c2)C(F)(F)F)cc1C(F)(F)F (stereo partly drawn) [Compound P10, 4-((E)-3-(3,5-Dibromo-4-chlorophenyl)-4,4,4-trifluorobut-1-en-1-yl)-N—((R)-1-(4,4,4-trifluorobutanamido)ethyl)-2-(trifluoromethyl)benzamide]",50 to 100,–,–,–,50 to 100,–,–,–,A (80-100)
"CN(NC(=O)c1ccc(/C=C/C(c2cc(Cl)c(Cl)c(Cl)c2)C(F)(F)F)cc1C(F)(F)F)C(=O)CC(F)(F)F (stereo not drawn) [Compound F22, (E)-N′-methyl-4-(4,4,4-trifluoro-3-(3,4,5-trichlorophenyl)but-1-en-1-yl)-2-(trifluoromethyl)-N′-(3,3,3-trifluoropropanoyl)benzohydrazide]",50 to 100,–,–,–,50 to 100,–,–,–,A (80-100)
"C[C@H](NC(=O)CCCC(C)(C)C)NC(=O)c1ccc(/C=C/C(c2cc(Cl)c(Cl)c(Cl)c2)C(F)(F)F)cc1C(F)(F)F (stereo partly drawn) [Compound F18, N—((R)-1-(5,5-Dimethylhexanamido)ethyl)-4-((E)-4,4,4-trifluoro-3-(3,4,5-trichlorophenyl)but-1-en-1-yl)-2-(trifluoromethyl)benzamide]",50 to 100,–,–,–,50 to 100,–,–,–,A (80-100)
"Cc1cc(/C=C/C(c2cc(Br)cc(Br)c2)C(F)(F)F)ccc1C(=O)N[C@H](C)NC(=O)CC(F)(F)F (stereo partly drawn) [Compound P7, 4-((E)-3-(3,5-Dibromophenyl)-4,4,4-trifluorobut-1-en-1-yl)-2-methyl-N—((R)-1-(3,3,3-trifluoropropanamido)ethyl)benzamide]",50 to 100,–,–,–,50 to 100,–,–,–,A (80-100)
"C[C@@H](NC(=O)c1ccc(/C=C/C(c2cc(Cl)c(Cl)c(Cl)c2)C(F)(F)F)cc1C(F)(F)F)NC(=O)C1(C#N)CC1 (stereo partly drawn) [Compound F14, N—((S)-1-(1-cyanocyclopropanecarboxamido)ethyl)-4-((E)-4,4,4-trifluoro-3-(3,4,5-trichlorophenyl)but-1-en-1-yl)-2-(trifluoromethyl)benzamide]",50 to 100,–,–,–,50 to 100,–,–,–,A (80-100)
"CC(NC(=O)c1ccc(/C=C/C(c2cc(Cl)c(Cl)c(Cl)c2)C(F)(F)F)cc1C(F)(F)F)NC(=O)C(C)(C)C (stereo in doubt) [Compound F19, N—((S)-1-Pivalamidoethyl)-4-((E)-4,4,4-trifluoro-3-(3,4,5-trichlorophenyl)but-1-en-1-yl)-2-(trifluoromethyl)benzamide]",50 to 100,–,–,–,50 to 100,–,–,–,A (80-100)
"CCCCC(=O)N[C@@H](C)NC(=O)c1ccc(/C=C/C(c2cc(Cl)c(Cl)c(Cl)c2)C(F)(F)F)cc1C(F)(F)F (stereo partly drawn) [Compound F5, N—((R)-1-Pentanamidoethyl)-4-((E)-4,4,4-trifluoro-3-(3,4,5-trichlorophenyl)but-1-en-1-yl)-2-(trifluoromethyl)benzamide]",50 to 100,–,–,–,50 to 100,–,–,–,A (80-100)
"C[C@H](NC(=O)CC#N)NC(=O)c1ccc(/C=C/C(c2cc(Cl)c(Cl)c(Cl)c2)C(F)(F)F)cc1C(F)(F)F (stereo partly drawn) [Compound F11, N—((R)-1-(2-Cyanoacetamido)ethyl)-4-((E)-4,4,4-trifluoro-3-(3,4,5-trichlorophenyl)but-1-en-1-yl)-2-(trifluoromethyl)benzamide]",50 to 100,–,–,–,50 to 100,–,–,–,A (80-100)
"C[C@H](NC(=O)CCC(C)(C)C)NC(=O)c1ccc(/C=C/C(c2cc(Cl)c(Cl)c(Cl)c2)C(F)(F)F)cc1C(F)(F)F (stereo partly drawn) [Compound F17, N—((R)-1-(4,4-Dimethylpentanamido)ethyl)-4-((E)-4,4,4-trifluoro-3-(3,4,5-trichlorophenyl)but-1-en-1-yl)-2-(trifluoromethyl)benzamide]",50 to 100,–,–,–,50 to 100,–,–,–,A (80-100)
"CC(C)CCC(=O)N[C@@H](C)NC(=O)c1ccc(/C=C/C(c2cc(Cl)c(Cl)c(Cl)c2)C(F)(F)F)cc1C(F)(F)F (stereo partly drawn) [Compound F4, N—((R)-1-(4-Methylpentanamido)ethyl)-4-((E)-4,4,4-trifluoro-3-(3,4,5-trichlorophenyl)but-1-en-1-yl)-2-(trifluoromethyl)benzamide]",50 to 100,–,–,–,50 to 100,–,–,–,A (80-100)
"C[C@@H](NC(=O)c1ccc(/C=C/C(c2cc(Cl)c(Cl)c(Cl)c2)C(F)(F)F)cc1C(F)(F)F)NC(=O)C1CC1 (stereo partly drawn) [Compound F7, N—((R)-1-(Cyclopropanecarboxamido)ethyl)-4-((E)-4,4,4-trifluoro-3-(3,4,5-trichlorophenyl)but-1-en-1-yl)-2-(trifluoromethyl)benzamide]",50 to 100,–,–,–,50 to 100,–,–,–,A (80-100)
"Cc1cc(/C=C/C(c2cc(Cl)c(F)c(Cl)c2)C(F)(F)F)ccc1C(=O)N[C@H](C)NC(=O)CCC(F)(F)F (stereo partly drawn) [Compound P13, 4-((E)-3-(3,5-Dichloro-4-fluorophenyl)-4,4,4-trifluorobut-1-en-1-yl)-2-methyl-N—((R)-1-(4,4,4-trifluorobutanamido)ethyl)benzamide]",50 to 100,–,–,–,50 to 100,–,–,–,A (80-100)
"C[C@H](NC(=O)CC(C)(C)C)NC(=O)c1ccc(/C=C/C(c2cc(Cl)c(Cl)c(Cl)c2)C(F)(F)F)cc1C(F)(F)F (stereo partly drawn) [Compound F15, N—((R)-1-(3,3-Dimethylbutanamido)ethyl)-4-((E)-4,4,4-trifluoro-3-(3,4,5-trichlorophenyl)but-1-en-1-yl)-2-(trifluoromethyl)benzamide]",50 to 100,–,–,–,50 to 100,–,–,–,A (80-100)
